Measured values from PubChem BioAssay AID248 (DTP/NCI, 2004).
Toxic doses and inconclusive results are not listed. No stated cut-off is given here; in the data, active means T/C of 150% or more; inactive means T/C below 125%. Square brackets hold non-standard residues; d marks the D form. Peptide text beside a SMILES is read from it. ξ: configuration not given here. ξE = NC(CCC(=O)O)C(=O)O

Test system: L1210 leukemia ip in BDF1 mice, survival T/C
Test: NCI In Vivo Anticancer Drug Screen. Data for tumor model L1210 Leukemia (intraperitoneal) in B6D2F1 (BDF1) mice
Conditions: endpoint: mean survival time, higher = longer survival
Summary of the method: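 Tumor was transplanted into mice, which were then dosed with test compound or vehicle alone. Survival was recorded for each group, and the treated figure was expressed relative to the control figure.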

[1] = dose: 100.0 mg/kg/injection, schedule: Q01DX001 (ip), vehicle: Klucel (hydroxypropylcellulose) (HPC)
[2] = dose: 200.0 mg/kg/injection, schedule: Q01DX001 (ip), vehicle: Klucel (hydroxypropylcellulose) (HPC)
[3] = dose: 100.0 mg/kg/injection, schedule: Q01DX009 (ip), vehicle: Klucel (hydroxypropylcellulose) (HPC)
[4] = dose: 200.0 mg/kg/injection, schedule: Q01DX009 (ip), vehicle: Klucel (hydroxypropylcellulose) (HPC)
[5] = dose: 100.0 mg/kg/injection, schedule: Q01DX001 (ip), vehicle: saline
[6] = dose: 400.0 mg/kg/injection, schedule: Q01DX009 (ip), vehicle: saline
[7] = dose: 100.0 mg/kg/injection, schedule: Q01DX001 (ip), vehicle: carboxymethylcellulose (CMC)
[8] = dose: 100.0 mg/kg/injection, schedule: Q04DX003 (ip), vehicle: saline
[9] = dose: 200.0 mg/kg/injection, schedule: Q04DX003 (ip), vehicle: saline
[10] = dose: 400.0 mg/kg/injection, schedule: Q04DX003 (ip), vehicle: saline
[11] = dose: 100.0 mg/kg/injection, schedule: Q01DX009 (ip), vehicle: saline
[12] = dose: 200.0 mg/kg/injection, schedule: Q01DX009 (ip), vehicle: saline
[13] = dose: 100.0 mg/kg/injection, schedule: Q04DX003 (ip), vehicle: saline with Tween-80

Measured: T/C

O=C1C(NC2CCCCC2)=C(c2ccccc2)c2ccccc21
inactive: dose: 50.0 mg/kg/injection, schedule: Q01DX001 (ip), vehicle: Klucel (hydroxypropylcellulose) (HPC) 94 % of control | [1] 92 % of control | [2] 94 % of control

O=C(/C(=N/O)c1ccc(Cl)cc1)c1ccccc1
inactive: dose: 50.0 mg/kg/injection, schedule: Q01DX009 (ip), vehicle: Klucel (hydroxypropylcellulose) (HPC) 89 % of control | dose: 75.0 mg/kg/injection, schedule: Q01DX001 (ip), vehicle: Klucel (hydroxypropylcellulose) (HPC) 89 % of control | [3] 96 % of control | dose: 150.0 mg/kg/injection, schedule: Q01DX001 (ip), vehicle: Klucel (hydroxypropylcellulose) (HPC) 100 % of control | [4] 107 % of control | dose: 300.0 mg/kg/injection, schedule: Q01DX001 (ip), vehicle: Klucel (hydroxypropylcellulose) (HPC) 98 % of control

O=NN(CCCl)C(=O)C1CCCCC1
inactive: dose: 4.5 mg/kg/injection, schedule: Q01DX001 (ip), vehicle: carboxymethylcellulose (CMC) 110 % of control | dose: 9.0 mg/kg/injection, schedule: Q01DX001 (ip), vehicle: carboxymethylcellulose (CMC) 112 % of control | dose: 18.0 mg/kg/injection, schedule: Q01DX001 (ip), vehicle: carboxymethylcellulose (CMC) 113 % of control | dose: 26.0 mg/kg/injection, schedule: Q01DX001 (ip), vehicle: carboxymethylcellulose (CMC) 112 % of control | dose: 40.0 mg/kg/injection, schedule: Q01DX001 (ip), vehicle: carboxymethylcellulose (CMC) 108 % of control | dose: 60.0 mg/kg/injection, schedule: Q01DX001 (ip), vehicle: carboxymethylcellulose (CMC) 110 % of control | dose: 93.0 mg/kg/injection, schedule: Q01DX001 (ip), vehicle: carboxymethylcellulose (CMC) 113 % of control | dose: 187.0 mg/kg/injection, schedule: Q01DX001 (ip), vehicle: carboxymethylcellulose (CMC) 116 % of control

Clc1ncnc2c1ncn2C1CCCO1 (configuration not stated)
active: [6] 154 % of control
inactive: [5] 97 % of control | dose: 178.0 mg/kg/injection, schedule: Q01DX009 (ip), vehicle: saline 113 % of control | dose: 200.0 mg/kg/injection, schedule: Q01DX001 (ip), vehicle: saline 96 % of control | dose: 267.0 mg/kg/injection, schedule: Q01DX009 (ip), vehicle: saline 113 % of control | dose: 400.0 mg/kg/injection, schedule: Q01DX001 (ip), vehicle: saline 112 % of control

CC(=O)OCc1ccc(Cl)c(Cl)c1
inactive: dose: 50.0 mg/kg/injection, schedule: Q01DX009 (ip), vehicle: saline sonified 100 % of control | dose: 100.0 mg/kg/injection, schedule: Q01DX009 (ip), vehicle: saline sonified 100 % of control | dose: 100.0 mg/kg/injection, schedule: Q04DX003 (ip), vehicle: saline sonified 101 % of control | dose: 200.0 mg/kg/injection, schedule: Q01DX009 (ip), vehicle: saline sonified 97 % of control | dose: 200.0 mg/kg/injection, schedule: Q04DX003 (ip), vehicle: saline sonified 107 % of control | dose: 400.0 mg/kg/injection, schedule: Q04DX003 (ip), vehicle: saline sonified 106 % of control

CCCCC[As](=O)(O)CCCCC
inactive: dose: 5.0 mg/kg/injection, schedule: Q01DX001 (ip), vehicle: saline 104 % of control | dose: 10.0 mg/kg/injection, schedule: Q01DX001 (ip), vehicle: saline 106 % of control | dose: 40.0 mg/kg/injection, schedule: Q01DX001 (ip), vehicle: saline 115 % of control | [5] 94 % of control

CCCCN=C1NC(N)=NC(C)(C)N1
inactive: [1] 98 % of control | [2] 102 % of control

Cc1ccc2c(ccc(/C=C\c3cc(C)c4cccnc4c3O)[n+]2C)c1
inactive: [7] 114 % of control

c1ccc2c3c(ccc2c1)OCCCCCOc1ccc2ccccc2c1-c1c(ccc2ccccc12)OCCOCCOc1ccc2ccccc2c1-3
inactive: dose: 100.0 mg/kg/injection, schedule: Q01DX001 (ip), vehicle: saline with Tween-80 92 % of control | dose: 200.0 mg/kg/injection, schedule: Q01DX001 (ip), vehicle: saline with Tween-80 92 % of control | dose: 400.0 mg/kg/injection, schedule: Q01DX001 (ip), vehicle: saline with Tween-80 98 % of control

O=C(Nc1cccc(O)c1)c1ccc([N+](=O)[O-])cc1
inactive: [3] 93 % of control | [4] 90 % of control | dose: 400.0 mg/kg/injection, schedule: Q01DX009 (ip), vehicle: Klucel (hydroxypropylcellulose) (HPC) 90 % of control

O=C1CCCCc2cc(O)c([N+](=O)[O-])cc21
inactive: dose: 50.0 mg/kg/injection, schedule: Q01DX009 (ip), vehicle: saline with Tween-80 101 % of control | dose: 100.0 mg/kg/injection, schedule: Q01DX009 (ip), vehicle: saline with Tween-80 95 % of control

CCC(=O)P(=O)(OC)OC
inactive: [8] 102 % of control | [9] 102 % of control | [10] 95 % of control

O=C1OC(=O)C23CCC(CC2)C2CCC13CC2
inactive: [11] 97 % of control | [8] 110 % of control | [12] 98 % of control | [9] 110 % of control | [6] 93 % of control | [10] 109 % of control

CCCCC(CC)(CC)OC(=O)c1ccc([N+](=O)[O-])cc1
inactive: dose: 100.0 mg/kg/injection, schedule: Q04DX002 (ip), vehicle: saline with Tween-80 87 % of control | dose: 200.0 mg/kg/injection, schedule: Q04DX002 (ip), vehicle: saline with Tween-80 106 % of control | dose: 400.0 mg/kg/injection, schedule: Q04DX002 (ip), vehicle: saline with Tween-80 98 % of control

O=C(O)CCI
inactive: dose: 50.0 mg/kg/injection, schedule: Q01DX009 (ip), vehicle: saline 98 % of control | [11] 90 % of control | dose: 100.0 mg/kg/injection, schedule: Q04DX003 (ip), vehicle: other 102 % of control | [12] 100 % of control | dose: 200.0 mg/kg/injection, schedule: Q04DX003 (ip), vehicle: other 96 % of control

COc1cc(N)c2ncccc2c1SC
inactive: [11] 108 % of control | [8] 93 % of control | [12] 107 % of control | [9] 95 % of control | [6] 116 % of control | [10] 102 % of control

O=C(C(=O)N1CC1)c1c[nH]c2ccccc12
inactive: dose: 25.0 mg/kg/injection, schedule: Q04DX003 (ip), vehicle: saline with Tween-80 95 % of control | dose: 50.0 mg/kg/injection, schedule: Q04DX003 (ip), vehicle: saline with Tween-80 91 % of control | [13] 95 % of control

CC(C)(C)OC(=O)c1ccc(C#N)cc1
inactive: [7] 96 % of control | dose: 200.0 mg/kg/injection, schedule: Q01DX001 (ip), vehicle: carboxymethylcellulose (CMC) 100 % of control | dose: 400.0 mg/kg/injection, schedule: Q01DX001 (ip), vehicle: carboxymethylcellulose (CMC) 100 % of control

Cc1cc(NC(=O)NCCCCCCNC(=O)Nc2cc(C)on2)no1
inactive: dose: 100.0 mg/kg/injection, schedule: Q01DX009 (ip), vehicle: other 89 % of control | dose: 200.0 mg/kg/injection, schedule: Q01DX009 (ip), vehicle: other 111 % of control | dose: 400.0 mg/kg/injection, schedule: Q01DX009 (ip), vehicle: other 100 % of control

Oc1cccc2c1ccc1ccc3ccccc3c12
inactive: [13] 92 % of control | dose: 200.0 mg/kg/injection, schedule: Q04DX003 (ip), vehicle: saline with Tween-80 95 % of control | dose: 400.0 mg/kg/injection, schedule: Q04DX003 (ip), vehicle: saline with Tween-80 90 % of control

NCC(=O)NC(CCC(=O)O)C(=O)O (configuration not stated) (H-Gly-[ξE]-OH)
inactive: dose: 50.0 mg/kg/injection, schedule: Q04DX002 (ip), vehicle: saline 89 % of control | dose: 100.0 mg/kg/injection, schedule: Q04DX002 (ip), vehicle: saline 104 % of control | dose: 200.0 mg/kg/injection, schedule: Q04DX002 (ip), vehicle: saline 93 % of control
